# Test results published in patent US9802927B2, “Oxadiazine compounds and methods of use thereof” (Denali Therapeutics, Inc., priority 2015, dated 2017).
# System: Aβ42
# Assay: In vitro cell screening assay in H4 cells expressing human APP751: Aβ42 by sandwich ELISA
# Type: cell-based
# Conditions: compounds 0.003-10 μM, incubated overnight (16-18 h), sandwich ELISA of supernatant
# Protocol: Human neuroglioma H4 cells were transfected with a pcDNA3.1 plasmid expressing human wild type APP751 cDNA and a stable cell line was generated using G418 selection. Cells were plated at 15,000 cells/well in Costar 96-well plates and placed at 37° C. and 5% CO2. Six hours after plating, cells were washed three times with Pro293™ chemically defined medium, followed by addition of compounds (0.003-10 μM, final DMSO concentration of 0.33%). Plates were incubated overnight (16-18 h) and supernatant was removed for quantification of Aβ peptides by sandwich ELISA. Cytotoxicity was evaluated using Cell-Titer 96W AQueous One Solution Cell Proliferation Assay according to the manufacturer's protocol.
# Aβ peptide levels were quantified by sandwich ELISA. 96-well plates were coated with C-terminal specific Aβ antibodies recognizing either Aβ37, Aβ38, Aβ40, Aβ42, Aβ43 or a N-terminal specific Aβ antibody to detect Aβ 1-x. Plates were then blocked overnight at 4° C. with 1% bovine serum albumin (BSA) in PBS-T. Plates were washed and 100 μl of cultured cell supernatant or synthetic Aβ peptide standards and a detection antibody (4G8-HRP) were applied to the blocked plate and incubated overnight at 4° C. The next day, wells were washed before the addition of detection substrate (TMB peroxidase). Plates were then read for absorbance at 450 nm on a Molecular Devices SpectraMax M5e Microplate Reader.
# Compound-treated samples were normalized to samples treated with DMSO alone (no inhibition) and to samples treated with DAPT. EC50 values were calculated from values reported as percent of DMSO controls using nonlinear regression, based on a sigmoidal dose response (variable slope) model. GraphPAD software from Prism used for calculation.
SMILES,EC50 [µM],EC50 (Homo sapiens) [µM]
"COc1nc(C2=NOCC(c3cn(C)c4ncc(C5CC5)cc34)N2)ccc1-n1cnc(C)c1 (single isomer, unassigned; (-)) [Example 266A, (−)-5-(5-cyclopropyl-1-methyl-1H-pyrrolo[2,3-b]pyridin-3-yl)-3-(6-methoxy-5-(4-methyl-1H-imidazol-1-yl)pyridin-2-yl)-5,6-dihydro-4H-1,2,4-oxadiazine]",0.45,
"COc1nc(C2=NOCC(C3CCOCC3)N2)ccc1-n1cnc(C)c1 (single isomer, unassigned; (+)) [Example 143B, (+)-3-(6-methoxy-5-(4-methyl-1H-imidazol-1-yl)pyridin-2-yl)-5-(tetrahydro-2H-pyran-4-yl)-5,6-dihydro-4H-1,2,4-oxadiazine]",2.46,
"COc1nc(C2=NOCC(c3cn(C(C)C)c4cccc(F)c34)N2)ccc1-n1cnc(C)c1 (single isomer, unassigned; (+)) [Example 196A, (+)-5-(4-fluoro-1-isopropyl-1H-indol-3-yl)-3-(6-methoxy-5-(4-methyl-1H-imidazol-1-yl)pyridin-2-yl)-5,6-dihydro-4H-1,2,4-oxadiazine]",0.0225,
"COc1nc(C2=NOCC(c3ccc4c(c3)CCC4)N2)ccc1-n1cnc(C)c1 (single isomer, unassigned; (+)) [Example 248B, (+)-5-(2,3-dihydro-1H-inden-5-yl)-3-(6-methoxy-5-(4-methyl-1H-imidazol-1-yl)pyridin-2-yl)-5,6-dihydro-4H-1,2,4-oxadiazine]",0.0101,
"COc1nc(C2=NOCC(c3ccc(Cl)c(F)c3)N2)ccc1-n1cnc(C)c1 (single isomer, unassigned; (-)) [Example 106A, (−)-5-(4-chloro-3-fluorophenyl)-3-(6-methoxy-5-(4-methyl-1H-imidazol-1-yl)pyridin-2-yl)-5,6-dihydro-4H-1,2,4-oxadiazine]",> 3,
"COc1nc(C2=NOCC(C3CCCC3)N2)ccc1-n1cnc(C)c1 (single isomer, unassigned; (+)) [Example 171A, (+)-5-cyclopentyl-3-(6-methoxy-5-(4-methyl-1H-imidazol-1-yl)pyridin-2-yl)-5,6-dihydro-4H-1,2,4-oxadiazine]",0.918,
"COc1nc(C2=NOCC(c3cn(C)c4ccc(C#N)cc34)N2)ccc1-n1cnc(C)c1 (single isomer, unassigned; (-)) [Example 245A, (−)-3-(3-(6-methoxy-5-(4-methyl-1H-imidazol-1-yl)pyridin-2-yl)-5,6-dihydro-4H-1,2,4-oxadiazin-5-yl)-1-methyl-1H-indole-5-carbonitrile]",0.554,
"COc1nc(C2=NOCC(c3nn(C)c4ccccc34)N2)ccc1-n1cnc(C)c1 (single isomer, unassigned; (-)) [Example 124A, (−)-3-(6-methoxy-5-(4-methyl-1H-imidazol-1-yl)pyridin-2-yl)-5-(1-methyl-1H-indazol-3-yl)-5,6-dihydro-4H-1,2,4-oxadiazine]",1.06,
"COc1nc(C2=NOCC(c3cccc(C(F)(F)F)c3)N2C)ccc1-n1cnc(C)c1 (stereo not drawn) [Example 30B, 3-(6-methoxy-5-(4-methyl-1H-imidazol-1-yl)pyridin-2-yl)-4-methyl-5-(3-(trifluoromethyl)phenyl)-5,6-dihydro-4H-1,2,4-oxadiazine]",> 3,
"COc1nc(C2=NOC[C@H](c3cc4ccccc4s3)N2)ccc1-n1cnc(C)c1 [Example 13, (R)-5-(Benzo[b]thiophen-2-yl)-3-(6-methoxy-5-(4-methyl-1H-imidazol-1-yl)pyridin-2-yl)-5,6-dihydro-4H-1,2,4-oxadiazine]",,0.0078
"COc1nc(C2=NOCC(c3ccc(Cl)cc3)N2)ccc1-n1cnc(C)c1 (single isomer, unassigned) [Example 42B, 5-(4-chlorophenyl)-3-(6-methoxy-5-(4-methyl-1H-imidazol-1-yl)pyridin-2-yl)-5,6-dihydro-4H-1,2,4-oxadiazine]",0.0283,
"COc1nc(C2=NOCC(C3CCC(F)(F)CC3)N2)ccc1-n1cnc(C)c1 (single isomer, unassigned; (-)) [Example 139A, (−)-5-(4,4-difluorocyclohexyl)-3-(6-methoxy-5-(4-methyl-1H-imidazol-1-yl)pyridin-2-yl)-5,6-dihydro-4H-1,2,4-oxadiazine]",,2.13
"COc1nc(C2=NOCC(c3cn(C(C)C)c4cc(F)ccc34)N2)ccc1-n1cnc(C)c1 (single isomer, unassigned; (-)) [Example 219B, (−)-5-(6-fluoro-1-isopropyl-1H-indol-3-yl)-3-(6-methoxy-5-(4-methyl-1H-imidazol-1-yl)pyridin-2-yl)-5,6-dihydro-4H-1,2,4-oxadiazine]",0.194,
"COc1nc(C2=NOCC(c3cc4c(Cl)cccc4o3)N2)ccc1-n1cnc(C)c1 (single isomer, unassigned; (-)) [Example 96A, (−)-5-(4-chlorobenzofuran-2-yl)-3-(6-methoxy-5-(4-methyl-1H-imidazol-1-yl)pyridin-2-yl)-5,6-dihydro-4H-1,2,4-oxadiazine]",1.01,
"COc1nc(C2=NOCC(c3cc4cccc(F)c4o3)N2)ccc1-n1cnc(C)c1 (single isomer, unassigned; (+)) [Example 89B, (+)-5-(7-fluorobenzofuran-2-yl)-3-(6-methoxy-5-(4-methyl-1H-imidazol-1-yl)pyridin-2-yl)-5,6-dihydro-4H-1,2,4-oxadiazine]",0.0442,
"COc1nc(C2=NOCC(c3ccc(C(C)(C)C)cc3)N2)ccc1-n1cnc(C)c1 (single isomer, unassigned; (-)) [Example 235A, (−)-5-(4-(tert-butyl)phenyl)-3-(6-methoxy-5-(4-methyl-1H-imidazol-1-yl)pyridin-2-yl)-5,6-dihydro-4H-1,2,4-oxadiazine]",0.763,
"COc1nc(C2=NOCC(c3cscn3)N2)ccc1-n1cnc(C)c1 (single isomer, unassigned; (+)) [Example 156A, (+)-3-(6-methoxy-5-(4-methyl-1H-imidazol-1-yl)pyridin-2-yl)-5-(thiazol-4-yl)-5,6-dihydro-4H-1,2,4-oxadiazine]",,1.73
"COc1nc(C2=NOCC(c3ccc(C4CC4)cc3)N2)ccc1-n1cnc(C)c1 (single isomer, unassigned; (+)) [Example 116B, (+)-5-(4-cyclopropylphenyl)-3-(6-methoxy-5-(4-methyl-1H-imidazol-1-yl)pyridin-2-yl)-5,6-dihydro-4H-1,2,4-oxadiazine]",0.0388,
"COc1nc(C2=NOCC(c3cn(C(C)C)c4cccc(F)c34)N2)ccc1-n1cnc(C)c1 (single isomer, unassigned; (-)) [Example 196B, (−)-5-(4-fluoro-1-isopropyl-1H-indol-3-yl)-3-(6-methoxy-5-(4-methyl-1H-imidazol-1-yl)pyridin-2-yl)-5,6-dihydro-4H-1,2,4-oxadiazine]",0.22,
"COc1nc(C2=NOCC(c3cscn3)N2)ccc1-n1cnc(C)c1 (single isomer, unassigned; (-)) [Example 156B, (−)-3-(6-methoxy-5-(4-methyl-1H-imidazol-1-yl)pyridin-2-yl)-5-(thiazol-4-yl)-5,6-dihydro-4H-1,2,4-oxadiazine]",> 3,
"COc1nc(C2=NOCC(C3CCCCC3)N2)ccc1-n1cnc(C)c1 (single isomer, unassigned; (+)) [Example 61B, (+)-5-cyclohexyl-3-(6-methoxy-5-(4-methyl-1H-imidazol-1-yl)pyridin-2-yl)-5,6-dihydro-4H-1,2,4-oxadiazine]",0.0578,
